Source: patent US20090105283A1, “3-HYDROQUINAZOLIN-4-ONE DERIVATIVES FOR USE AS STEAROYL CoA DESATURASE INHIBITORS” (priority 2007, published 2009)

What follows are compounds tested against T1, stearoyl-CoA desaturase (SCD) (Rattus norvegicus, UniProt P07308) (assay: SCD assay with rat liver microsomes ([3H]stearoyl CoA, adapted from Talamo and Bloch)). Details: Table 1; rat liver microsomes 0.2 mg/ml assay final, [3H]stearoyl CoA substrate, 30 min preincubation, 45 min reaction, room temperature.
T1 construct: The microsomes were quickly thawed and added to assay buffer so that a concentration of 0.4 mg/ml was achieved; from tissue
T1 sequence (P07308 1-358): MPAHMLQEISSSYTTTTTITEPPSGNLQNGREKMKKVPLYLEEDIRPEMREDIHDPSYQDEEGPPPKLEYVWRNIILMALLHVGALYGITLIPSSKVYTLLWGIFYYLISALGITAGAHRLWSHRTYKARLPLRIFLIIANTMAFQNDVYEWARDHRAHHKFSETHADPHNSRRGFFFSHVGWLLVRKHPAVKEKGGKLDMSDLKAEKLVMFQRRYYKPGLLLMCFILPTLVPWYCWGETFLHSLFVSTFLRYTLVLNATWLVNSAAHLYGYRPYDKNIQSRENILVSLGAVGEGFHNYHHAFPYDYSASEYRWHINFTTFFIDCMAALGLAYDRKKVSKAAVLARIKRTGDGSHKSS
Format: biochemical
How it was run: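 Liver microsomes came from diet-induced male Sprague Dawley rats and were used at 0.2 mg/ml final. Assay buffer was Tris pH 7.2 with NADH, ATP, CoA, MgCl2 and 0.1% BSA. Compounds were preincubated 30 min, then reacted 45 min at room temperature with [3H]stearoyl-CoA; after TCA stop and Bio-Bead cleanup, supernatant radioactivity was counted by scintillation.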

Row | SMILES | IC50
1 | COc1ccc(OCC(=O)Nc2ccc3ncn(Cc4ccc(Cl)c(Cl)c4)c(=O)c3c2)cc1 [XVII, N-{3-[(3,4-dichlorophenyl)methyl]-4-oxo(3-hydroquinazolin-6-yl)}-2-(4-methoxyphenoxy)acetamide] | 2980 nM
2 | Cc1cccc(C)c1OCC(=O)Nc1ccc2ncn(Cc3ccc(Cl)c(Cl)c3)c(=O)c2c1 [XXI, N-{3-[(3,4-dichlorophenyl)methyl]-4-oxo(3-hydroquinazolin-6-yl)}-2-(2,6-dimethylphenoxy)acetamide] | 3450 nM
3 | Cc1ccc(OCC(=O)Nc2ccc3ncn(Cc4ccc(Cl)c(Cl)c4)c(=O)c3c2)cc1 [XXII, N-{3-[(3,4-dichlorophenyl)methyl]-4-oxo(3-hydroquinazolin-6-yl)}-2-(4-methylphenoxy)acetamide] | 5700 nM
4 | O=C(COc1ccccc1F)Nc1ccc2ncn(Cc3ccc(Cl)c(Cl)c3)c(=O)c2c1 [XXVI, N-{3-[(3,4-dichlorophenyl)methyl]-4-oxo(3-hydroquinazolin-6-yl)}-2-(2-fluorophenoxy)acetamide] | 3690 nM
5 | O=C(COc1ccc(F)cc1F)Nc1ccc2ncn(Cc3ccc(Cl)c(Cl)c3)c(=O)c2c1 [XXVIII, N-{3-[(3,4-dichlorophenyl)methyl]-4-oxo(3-hydroquinazolin-6-yl)}-2-(2,4-difluorophenoxy)acetamide] | 3430 nM
6 | O=C(COc1cccc(Cl)c1Cl)Nc1ccc2ncn(Cc3ccc(Cl)c(Cl)c3)c(=O)c2c1 [XXX, N-{3-[(3,4-dichlorophenyl)methyl]-4-oxo(3-hydroquinazolin-6-yl)}-2-(2,3-dichlorophenoxy)acetamide] | 3780 nM
7 | O=C(COc1ccccc1[N+](=O)[O-])Nc1ccc2ncn(Cc3ccc(Cl)c(Cl)c3)c(=O)c2c1 [XXXI, N-{3-[(3,4-dichlorophenyl)methyl]-4-oxo(3-hydroquinazolin-6-yl)}-2-(2-nitrophenoxy)acetamide] | 15000 nM
8 | O=C(CCOc1ccccc1)Nc1ccc2ncn(Cc3ccc(Cl)c(Cl)c3)c(=O)c2c1 [XXXIII, N-{3-[(3,4-dichlorophenyl)methyl]-4-oxo(3-hydroquinazolin-6-yl)}-3-phenoxypropanamide] | 6880 nM
9 | O=C(COc1ccccc1)Nc1ccc2ncn(Cc3ccc(Cl)c(F)c3)c(=O)c2c1 [XXXIX, N-{3-[(4-chloro-3-fluorophenyl)methyl]-4-oxo(3-hydroquinazolin-6-yl)}-2-phenoxyacetamide] | 6100 nM
10 | O=C(COc1cccc2nsnc12)Nc1ccc2ncn(Cc3ccc(Cl)c(Cl)c3)c(=O)c2c1 [XXXV, 2-benzo[c]1,2,5-thiadiazol-4-yloxy-N-{3-[(3,4-dichlorophenyl)methyl]-4-oxo(3-hydroquinazolin-6-yl)}acetamide] | 21000 nM
11 | O=C(COc1cccnc1)Nc1ccc2ncn(Cc3ccc(Cl)c(Cl)c3)c(=O)c2c1 [XXXVI, N-{3-[(3,4-dichlorophenyl)methyl]-4-oxo(3-hydroquinazolin-6-yl)}-2-(3-pyridyloxy)acetamide] | 3100 nM
12 | O=C(CSc1ccncc1)Nc1ccc2ncn(Cc3ccc(Cl)cc3)c(=O)c2c1 [XXXVII, N-{3-[(4-chlorophenyl)methyl]-4-oxo(3-hydroquinazolin-6-yl)}-2-(4-pyridylthio)acetamide] | 7300 nM
13 | O=C(COc1ccccc1)Nc1ccc2ncn(Cc3ccc(Br)cc3)c(=O)c2c1 [XXXVIII, N-{3-[(4-bromophenyl)methyl]-4-oxo(3-hydroquinazolin-6-yl)}-2-phenoxyacetamide] | 15000 nM

The next lines start with the values.

Row | IC50 | SMILES
14 | 450 nM | O=C(Nc1ccc2ncn(Cc3ccc(F)c(Cl)c3)c(=O)c2c1)OCc1ccccc1 [XLVI, N-{3-[(3-chloro-4-fluorophenyl)methyl]-4-oxo(3-hydroquinazolin-6-yl)}(phenylmethoxy)carboxamide]
15 | 100 nM | CC(=O)OCC(=O)Nc1ccc2ncn(Cc3ccc(Cl)c(Cl)c3)c(=O)c2c1 [XLVII, (N-{3-[(3,4-dichlorophenyl)methyl]-4-oxo-3-hydroquinazolin-6-yl}carbamoyl)methyl acetate]
16 | 90 nM | O=C(Nc1ccc2c(=O)n(Cc3ccc(Cl)cc3)cnc2c1)OCc1ccccc1 [XLVIII, N-{3-[(4-chlorophenyl)methyl]-4-oxo(3-hydroquinazolin-7-yl)}(phenylmethoxy)carboxamide]
17 | 220 nM | O=C(COc1ccccc1)Nc1ccc2ncn(Cc3ccc(Cl)c(Cl)c3)c(=O)c2c1 [XV, N-{3-[(3,4-dichlorophenyl)methyl]-4-oxo(3-hydroquinazolin-6-yl)}-2-phenoxyacetamide]
18 | 470 nM | O=C(Nc1ccc2ncn(CCc3ccc(Cl)cc3)c(=O)c2c1)OCc1ccccc1 [XVI, N-{3-[2-(4-chlorophenyl)ethyl]-4-oxo(3-hydroquinazolin-6-yl)}(phenylmethoxy)carboxamide]
19 | 2100 nM | O=C(COc1ccc(F)cc1)Nc1ccc2ncn(Cc3ccc(Cl)c(Cl)c3)c(=O)c2c1 [XVIII, N-{3-[(3,4-dichlorophenyl)methyl]-4-oxo(3-hydroquinazolin-6-yl)}-2-(4-fluorophenoxy)acetamide]
20 | 2920 nM | Cc1cc(C)cc(OCC(=O)Nc2ccc3ncn(Cc4ccc(Cl)c(Cl)c4)c(=O)c3c2)c1 [XX, N-{3-[(3,4-dichlorophenyl)methyl]-4-oxo(3-hydroquinazolin-6-yl)}-2-(3,5-dimethylphenoxy)acetamide]
21 | 170 nM | O=C(Nc1ccc2ncn(Cc3ccc(Cl)c(Cl)c3)c(=O)c2c1)OCc1cccnc1 [XXIII, N-{3-[(3,4-dichlorophenyl)methyl]-4-oxo(3-hydroquinazolin-6-yl)}(3-pyridylmethoxy)carboxamide]
22 | 300 nM | O=C(Nc1ccc2ncn(Cc3ccc(F)cc3)c(=O)c2c1)OCc1ccccc1 [XXIV, N-{3-[(4-fluorophenyl)methyl]-4-oxo(3-hydroquinazolin-6-yl)}(phenylmethoxy)carboxamide]
23 | 1980 nM | O=C(COc1ccccc1Cl)Nc1ccc2ncn(Cc3ccc(Cl)c(Cl)c3)c(=O)c2c1 [XXIX, N-{3-[(3,4-dichlorophenyl)methyl]-4-oxo(3-hydroquinazolin-6-yl)}-2-(2-chlorophenoxy)acetamide]
24 | 780 nM | COc1ccccc1OCC(=O)Nc1ccc2ncn(Cc3ccc(Cl)c(Cl)c3)c(=O)c2c1 [XXV, N-{3-[(3,4-dichlorophenyl)methyl]-4-oxo(3-hydroquinazolin-6-yl)}-2-(2-methoxyphenoxy)acetamide]
25 | 2010 nM | O=C(COc1cccc(F)c1)Nc1ccc2ncn(Cc3ccc(Cl)c(Cl)c3)c(=O)c2c1 [XXVII, N-{3-[(3,4-dichlorophenyl)methyl]-4-oxo(3-hydroquinazolin-6-yl)}-2-(3-fluorophenoxy)acetamide]
26 | 2850 nM | O=C(COc1ccc2ccccc2c1)Nc1ccc2ncn(Cc3ccc(Cl)c(Cl)c3)c(=O)c2c1 [XXXII, N-{3-[(3,4-dichlorophenyl)methyl]-4-oxo(3-hydroquinazolin-6-yl)}-2-(2-naphthyloxy)acetamide]
27 | 2100 nM | CC(Oc1ccccc1Cl)C(=O)Nc1ccc2ncn(Cc3ccc(Cl)c(Cl)c3)c(=O)c2c1 (stereo not drawn) [XXXIV, N-{3-[(3,4-dichlorophenyl)methyl]-4-oxo(3-hydroquinazolin-6-yl)}-2-(2-chlorophenoxy)propanamide]

Same assay, conditions: Table 2 (Example 21, procedures of Example 20); rat liver microsomes, [3H]stearoyl CoA substrate

Row | SMILES | IC50
28 | CC(=O)OCC(=O)Nc1ccc2ncn(Cc3ccc(F)c(F)c3)c(=O)c2c1 [compound 1, 2-(3-(3,4-difluorobenzyl)-4-oxo-3,4-dihydroquinazolin-6-ylamino)-2-oxoethyl acetate] | 2100 nM
29 | O=C(CO)Nc1ccc2ncn(Cc3ccc(F)c(F)c3)c(=O)c2c1 [compound 2, N-(3-(3,4-difluorobenzyl)-4-oxo-3,4-dihydroquinazolin-6-yl)-2-hydroxyacetamide] | 2400 nM
30 | CC(=O)OCC(=O)Nc1ccc2ncn(Cc3ccc(Cl)cc3)c(=O)c2c1 [compound 3, 2-(3-(4-chlorobenzyl)-4-oxo-3,4-dihydroquinazolin-6-ylamino)-2-oxoethyl acetate] | 940 nM
31 | O=C(CO)Nc1ccc2ncn(Cc3ccc(Cl)cc3)c(=O)c2c1 [compound 4, N-(3-(4-chlorobenzyl)-4-oxo-3,4-dihydroquinazolin-6-yl)-2-hydroxyacetamide] | 1200 nM
32 | O=C(COc1ccccc1)Nc1ccc2ncn(Cc3ccc(Cl)cc3)c(=O)c2c1 [compound 5, N-(3-(4-chlorobenzyl)-4-oxo-3,4-dihydroquinazolin-6-yl)-2-phenoxyacetamide] | 8000 nM
33 | CC(=O)OCC(=O)Nc1ccc2ncn(Cc3ccc(Cl)c(C(F)(F)F)c3)c(=O)c2c1 [compound 6, 2-(3-(4-chloro-3-(trifluoromethyl)benzyl)-4-oxo-3,4-dihydroquinazolin-6-ylamino)-2-oxoethyl acetate] | 130 nM
34 | O=C(CO)Nc1ccc2ncn(Cc3ccc(Cl)c(C(F)(F)F)c3)c(=O)c2c1 [compound 7, N-(3-(4-chloro-3-(trifluoromethyl)benzyl)-4-oxo-3,4-dihydroquinazolin-6-yl)-2-hydroxyacetamide] | 190 nM
35 | Cc1nc2cc(NC(=O)OCc3ccccc3)ccc2c(=O)n1Cc1ccc(Cl)c(Cl)c1 [compound 8, benzyl 3-(3,4-dichlorobenzyl)-2-methyl-4-oxo-3,4-dihydroquinazolin-7-ylcarbamate] | 1200 nM
36 | CC(c1ccc(Cl)c(Cl)c1)n1cnc2cc(NC(=O)OCc3ccccc3)ccc2c1=O (stereo not drawn) [compound 9, benzyl 3-(1-(3,4-dichlorophenyl)ethyl)-4-oxo-3,4-dihydroquinazolin-7-ylcarbamate] | 290 nM
